Measured values taken from PubChem BioAssay AID248 (DTP/NCI, 2004).
“And” between values parts separate entries of the source, which are not always exact repeats. Identical values can stand only once. Toxic doses and inconclusive results are not listed. Rule as the data show it: active = T/C of 150% or more; inactive = T/C below 125%.

Tested on: L1210 leukemia ip in BDF1 mice, survival T/C
Test: NCI In Vivo Anticancer Drug Screen. Data for tumor model L1210 Leukemia (intraperitoneal) in B6D2F1 (BDF1) mice
Details: endpoint: mean survival time, higher = longer survival
Method in brief: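 Mice bearing the transplanted tumor received compound or vehicle. Survival of the treated group was divided by that of the vehicle-treated control group to give the ratio.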

[1] = dose: 100.0 mg/kg/injection, schedule: Q01DX009 (ip), vehicle: Klucel (hydroxypropylcellulose) (HPC)

Measured: T/C

COc1ccc2c3c1OC1C4(CCC5C(C2)N(CC2CC2)CCC351)OCCO4 (stereo unspecified)
inactive: dose: 12.5 mg/kg/injection, schedule: Q04DX003 (ip), vehicle: Klucel (hydroxypropylcellulose) (HPC) 101 % of control | dose: 25.0 mg/kg/injection, schedule: Q01DX009 (ip), vehicle: Klucel (hydroxypropylcellulose) (HPC) 95 % of control | dose: 25.0 mg/kg/injection, schedule: Q04DX003 (ip), vehicle: Klucel (hydroxypropylcellulose) (HPC) 103 % of control | dose: 50.0 mg/kg/injection, schedule: Q01DX009 (ip), vehicle: Klucel (hydroxypropylcellulose) (HPC) 94 % of control | dose: 50.0 mg/kg/injection, schedule: Q04DX003 (ip), vehicle: Klucel (hydroxypropylcellulose) (HPC) 101 % of control | [1] 91 % of control | dose: 100.0 mg/kg/injection, schedule: Q04DX003 (ip), vehicle: Klucel (hydroxypropylcellulose) (HPC) 101 % of control

O=c1cc(CSCC(O)CO)[nH]c(=O)[nH]1 (stereo unspecified)
inactive: dose: 100.0 mg/kg/injection, schedule: Q04DX003 (ip), vehicle: saline 98 % of control | dose: 200.0 mg/kg/injection, schedule: Q04DX003 (ip), vehicle: saline 98 % of control | dose: 400.0 mg/kg/injection, schedule: Q04DX003 (ip), vehicle: saline 96 % of control

CNC(=O)Oc1ccc(Nc2ccccc2)cc1
inactive: [1] 97 % of control and 104 % of control | dose: 100.0 mg/kg/injection, schedule: Q04DX002 (ip), vehicle: Klucel (hydroxypropylcellulose) (HPC) 105 % of control and 88 % of control | dose: 200.0 mg/kg/injection, schedule: Q01DX009 (ip), vehicle: Klucel (hydroxypropylcellulose) (HPC) 100 % of control and 104 % of control | dose: 200.0 mg/kg/injection, schedule: Q04DX002 (ip), vehicle: Klucel (hydroxypropylcellulose) (HPC) 97 % of control and 98 % of control | dose: 400.0 mg/kg/injection, schedule: Q01DX009 (ip), vehicle: Klucel (hydroxypropylcellulose) (HPC) 95 % of control and 104 % of control | dose: 400.0 mg/kg/injection, schedule: Q04DX002 (ip), vehicle: Klucel (hydroxypropylcellulose) (HPC) 93 % of control and 108 % of control
